Reference: patent US20250346613A1, “BORIC ACID PROTEASOME INHIBITOR AND USE THEREOF” (ARTIVILA BIOPHARMA, priority 2022, published 2025)

Experiments:
[1] = Blood concentration measurement of orally-administrated mice; assay type: in vivo, C57BL/6JNifdc mice; settings: C57BL/6JNifdc, mouse, plasma, oral, 30 mg/kg; for concentration at 0.5 h: read-out: Average blood compound concentration (μM) 0.5 h; for concentration at 1 h: read-out: Average blood compound concentration (μM) 1.0 h; for concentration at 1.5 h: read-out: Average blood compound concentration (μM) 1.5 h; for concentration at 2 h: read-out: Average blood compound concentration (μM) 2.0 h
Description: The C57BL/6JNifdc mice used in this experiment were provided by Zhejiang Vital River Laboratory Animal Technology Co., Ltd. The compounds were dissolved in DMSO/Solutol/Saline (v/v/v=10/10/80) as a stock solution (3 mg/mL). The stock solution was administrated orally to 6 C57BL/6JNifdc mice at a dose of 30 mg/kg. Blood was collected from the orbital venous plexus at 0.5 h, 1 h, 1.5 h, and 2 h after oral administration.
Approximately 200 μL of blood samples were collected into EDTAK2 Blood Collection tubes and then immediately centrifuged at 10,000 rpm for 5 min. 66 μL of plasma supernatant was added with 198 μL of acetonitrile (Energy), the resulting mixture was shaken on a vortex for 5 min, and then immediately centrifuged at 13000 rpm for 8 min. 200 μL of supernatant was taken for blood compound concentration measurement.
The compound was accurately weighed and dissolved in acetonitrile to a concentration of 100 μg/mL. 50 μL of compound was pipetted and added to 4.95 mL of acetonitrile/water (v/v=3/1) solution to obtain 1000 ng/mL mother liquid. 650 μL of the mother liquid was taken and sequentially diluted with a solution of acetonitrile/water (v/v=3/1) in a 2-fold gradient to obtain standard samples with various concentrations of 500 ng/mL, 250 ng/mL, 125 ng/mL, 62.5 ng/mL, and 31.25 ng/mL.
Standard solutions with concentrations of 1000 ng/mL, 500 ng/mL, 250 ng/mL, 125 ng/mL, 62.5 ng/mL, and 31.25 ng/mL were measured by using LC-MS (LC-MS 2020+LC-2030 Plus, Shimadzu) SIM mode to obtain a calibration curve. The treated blood samples were measured by this method and then subjected to quantitative analysis by using the calibration curve to obtain compound concentration data of each treated blood sample.
The data were exported and the average blood compound concentration at each sampling time was calculated.
Blood compound concentration=compound concentration in treated blood sample×4/molecular weight of the compound. The average blood compound concentration is the average of the compound concentrations in the blood at each sampling time.

[2] = target: T1, β5c subunit of the 20S proteasome (Homo sapiens, UniProt P20618+P28074); experiment: Proteasome inhibitory activity, β5c subunit (Raji cells treated with compound, lysed, Suc-LLVY-AMC substrate); assay type: cell-based; settings: proteasome from Raji cells incubated with compound 4 h
T1 construct: The proteasome tested in the present disclosure was derived from Raji cells; endogenous in cells; host or cells: Raji cells
In short: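 Raji cells were treated for 4 h at 37 °C with compound (from 1 μM, 3-fold, 8 concentrations), then lysed. Lysate activity was read 10 min at 37 °C with Ac-ANW-AMC (β5i) or Suc-LLVY-AMC (β5c) at 345/445 nm. Percent inhibition was relative to DMSO-treated lysate.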

SMILES	concentration at 0.5 h [1] [µM]	concentration at 1 h [1] [µM]	concentration at 1.5 h [1] [µM]	concentration at 2 h [1] [µM]	IC50 [2] [nM]
Cc1ccc(C[C@H](NC(=O)C(C)C(=O)NCc2ccc(Cl)cc2Cl)B(O)O)cc1 (stereo partly drawn) [Example 59, ((1R)-1-(3-((2,4-dichlorobenzyl)amino)-2-methyl-3-oxopropionamido)-2-(p-tolyl)ethyl)boric acid]	23	20	22	16	≤ 50
COc1cccc(CCNC(=O)C(C)C(=O)N[C@@H](Cc2coc3ccccc23)B(O)O)c1 (stereo partly drawn) [Example 63, ((1R)-2-(benzofuran-3-yl)-1-(3-((3-methoxyphenylethyl)amino)-2-methyl-3-oxopropionamido)ethyl)boric acid]	23	24	15	16	≤ 50
